Test results: patent US5911990A, “T-cell receptor peptides and methods for preventing the progression to AIDS in an animal model” (Arizona Board of Regents on Behalf of the University of …, priority 1996, dated 1999)
Ends that are not written are not given here.

Assay: Body weight (Example 2)
Type: in vivo, mice
Settings: various levels of peptide injection or time course of injection postinfection
Excerpt: Female C57BL/6 mice, 4-weeks old, were obtained from Charles River Laboratories Inc. (Wilmington, Del.). Animals were cared for as required by the University of Arizona Committee on Animal Research. After 2 weeks housing in the animal facility in the Arizona Health Science Center (Tucson, Ariz.), they were randomly assigned to one of the following treatments with 8 mice per group for study A: (1) uninfected, normal mice; (2) uninfected, normal mice injected with saline (pyrogen free); (3) LP-BM5-infected mice injected with 5 μg TCR Vβ CDRI peptide; (4) LP-BM5infected mice injected with 25 μg TCR Vβ CDR1 peptide; (5) LP-BM5 infected mice injected with 100 μg TCR Vβ CDR1 peptide; (6) LP-BM5-infected mice injected with 200 μg TCR Vβ CDR1 peptide; (7) LP-BM5-infected mice injected with 500 μg TCR Vβ CDR1 peptide; (8) LP-BM5-infected mice injected with saline and 200 μg Poly AU adjuvant; (9) LP-BM5-infected mice injected with 25 μg TCR Vβ CDR1 peptide and 230 μg Poly AU adjuvant; (10) LP-BM5-infected mice injected with saline and 230 μg Ribi MPL TDM CWS adjuvant; (11) LP-BM5-infected mice injected with 5 μg TCR Vβ CDR1 peptide and 230 μg Ribi MPL TDM CWS adjuvant; and (12) LP-BM5-infected mice injected with 25 μg TCR Vβ CDR1 peptide and 230 Ribi MPL TDM CWS adjuvant.
Administration of peptides (dissolved in saline) and adjuvants were performed 2 weeks after LP-BM5 infection. […]

With “CKPISGHNSLFWYRQT [TCR Vβ CDR1 peptide, Cys Lys Pro Ile Ser Gly His Asn Ser Leu Phe Trp Tyr Arg Gln Thr]” the “body weight of the mice” value was “not affected”.
